Data published in US9409952B2, “Peptide-compound cyclization method” (Chugai Seiyaku Kabushiki Kaisha, priority 2011, dated 2016).
Where two headings read alike, the source gives them in different places. Starred links: 1 amine or outer side, 2 acyl side, 3 side chain; linkers in the order of their positions; H or OH if unused. Positions of bridges follow the written chain, without caps; N, C: chain ends. Non-standard residues stand in square brackets, D forms with d. Residues, ends and D or L forms follow the SMILES beside them. ξ: configuration not given here. *: point of attachment. NMeF = CN[C@@H](Cc1ccccc1)C(=O)O; NMeI = CC[C@H](C)[C@H](NC)C(=O)O; NMeβAla = CN(CCC(=O)[*:2])[*:1]; NMeL = CN[C@@H](CC(C)C)C(=O)O; ξNMeF = CNC(Cc1ccccc1)C(=O)O; NMeV = CN[C@H](C(=O)O)C(C)C; NMeA = CN[C@@H](C)C(=O)O; Piperidide = C1CCN(*)CC1; dNMeA = CN[C@H](C)C(=O)O; Sar = CNCC(=O)O

Legend:
[1] = PAMPA (parallel artificial membrane permeability assay); assay type: in vitro ADME; conditions: PAMPA
Outline: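 Artificial membrane was 10% (w/v) egg lecithin plus 0.5% (w/v) cholesterol in dodecane on a PVDF filter. A 10 mM DMSO stock was added at 0.5% (v/v) to donor buffer (50 mM MOPSO, pH 6.5, 5.0% glycocholic acid). After 18 h at 37 °C, LC/MS or LC/UV gave donor and acceptor levels for Pe.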

[2] = Metabolic stability in human hepatic microsome; assay type: in vitro ADME; conditions: microsomes
[3] = membrane permeation rate (Pe), 50 mM MOPSO buffer pH 6.5 with 5.0% glycocholic acid, 37° C., 18 hours, read-out: iPAMPA Pe
[4] = pH 7.4, human hepatic microsome, NADPH(+), read-out: CL NADPH(+)

SMILES | Papp at 18 hours, 50 µM ([1]; pH 6.5) [×10⁻⁶ cm/s] | microsomal CLint at 1 uM ([2]; human, pH 7.4, CL NADPH(+)) [µL/min/mg] | Papp at 18 hours, 50 µM [1, 3] [×10⁻⁶ cm/s] | microsomal CLint at 1 uM [2, 4] [µL/min/mg]
CC[C@H](C)[C@@H]1NC(=O)[C@H](C)N(C)C(=O)[C@H](CC(C)C)N(C)C(=O)CCN(C)C(=O)C[C@@H](C(=O)N(C)[C@@H](Cc2ccccc2)C(=O)N[C@@H](C)C(=O)N2CCCCC2)NC(=O)[C@H](CC(C)C)N(C)C(=O)[C@H](Cc2ccccc2)N(C)C(=O)[C@H](Cc2ccccc2)N(C)C(=O)[C@H](C)N(C)C(=O)[C@H]([C@@H](C)O)NC(=O)[C@H](CC(C)C)N(C)C1=O [DP-281] ([NMeβAla][NMeL][NMeA]I[NMeL]T[NMeA][NMeF][NMeF][NMeL]D[NMeF]A-Piperidide; lactam N-11) | 17 | 28 | – | –
CC(C)C[C@@H]1NC(=O)[C@H](CC(C)C)N(C)C(=O)CNC(=O)[C@H](Cc2ccccc2)NC(=O)[C@H](C(C)C)N(C)C(=O)[C@H](Cc2ccccc2)NC(=O)[C@H](C)N(C)C(=O)CCN(C)C(=O)C[C@@H](C(=O)N(C)[C@@H](Cc2ccccc2)C(=O)N[C@@H](C)C(=O)N2CCCCC2)NC(=O)[C@H](C)N(C)C(=O)[C@H](CC(C)C)N(C)C1=O [DP-282] ([NMeβAla][NMeA]F[NMeV]FG[NMeL]L[NMeL][NMeA]D[NMeF]A-Piperidide; lactam N-11) | 28 | 138 | – | –
CC[C@H](C)[C@H]1C(=O)N[C@@H](C)C(=O)N(C)[C@@H](CC(C)C)C(=O)N(C)[C@@H](Cc2ccccc2)C(=O)N[C@@H]([C@@H](C)O)C(=O)N(C)[C@@H](C)C(=O)N(C)[C@@H](CC(C)C)C(=O)N(C)[C@@H](Cc2ccccc2)C(=O)N[C@H](C(=O)N(C)[C@@H](Cc2ccccc2)C(=O)N[C@@H](C)C(=O)N2CCCCC2)CC(=O)N(C)CC(=O)N(C)[C@@H](CC(C)C)C(=O)N1C [DP-284] ([Sar][NMeL][NMeI]A[NMeL][NMeF]T[NMeA][NMeL][NMeF]D[NMeF]A-Piperidide; lactam N-11) | 0.21 | 11 | – | –
CC(C)C[C@@H]1NC(=O)[C@H](C)N(C)C(=O)CNC(=O)[C@H](C(C)C)N(C)C(=O)[C@H](Cc2ccccc2)NC(=O)[C@H]([C@@H](C)O)NC(=O)[C@H](CC(C)C)N(C)C(=O)CN(C)C(=O)C[C@@H](C(=O)N(C)[C@@H](Cc2ccccc2)C(=O)N[C@@H](C)C(=O)N2CCCCC2)NC(=O)[C@H](C)N(C)C(=O)[C@H](CC(C)C)N(C)C1=O [DP-285] ([Sar][NMeL]TF[NMeV]G[NMeA]L[NMeL][NMeA]D[NMeF]A-Piperidide; lactam N-11) | 16 | 69 | – | –
CC[C@H](C)[C@@H]1NC(=O)[C@H](C)N(C)C(=O)[C@H]([C@@H](C)O)NC(=O)[C@H](C(C)C)N(C)C(=O)[C@H](C)N(C)C(=O)[C@H](Cc2ccccc2)NC(=O)[C@H](C)NC(=O)C[C@@H](C(=O)N(C)[C@@H](Cc2ccccc2)C(=O)N[C@@H](C)C(=O)N2CCCCC2)NC(=O)[C@H](C)N(C)C(=O)[C@H](CC(C)C)N(C)C1=O [DP-288] (AF[NMeA][NMeV]T[NMeA]I[NMeL][NMeA]D[NMeF]A-Piperidide; lactam N-10) | 18 | 80 | – | –
CC[C@H](C)[C@@H]1NC(=O)[C@H](CC(C)C)N(C)C(=O)CN(C)C(=O)[C@H]([C@@H](C)O)NC(=O)[C@H](CC(C)C)N(C)C(=O)[C@H](Cc2ccccc2)N(C)C(=O)[C@H](C)N(C)C(=O)[C@@H](C)NC(=O)C[C@@H](C(=O)N(C)[C@@H](Cc2ccccc2)C(=O)N[C@@H](C)C(=O)N2CCCCC2)NC(=O)[C@H](C(C)C)N(C)C1=O [DP-290] ([dA][NMeA][NMeF][NMeL]T[Sar][NMeL]I[NMeV]D[NMeF]A-Piperidide; lactam N-10) | – | – | 19 | 23
CC(C)C[C@H]1C(=O)N(C)[C@@H](C(C)C)C(=O)N[C@@H](Cc2ccccc2)C(=O)N[C@H](C(=O)N(C)[C@@H](Cc2ccccc2)C(=O)N[C@@H](C)C(=O)N2CCCCC2)CC(=O)N[C@H](C)C(=O)N[C@@H](C(C)C)C(=O)N(C)[C@@H](CC(C)C)C(=O)N[C@@H]([C@@H](C)O)C(=O)N(C)[C@@H](Cc2ccccc2)C(=O)NCC(=O)N1C [DP-291] ([dA]V[NMeL]T[NMeF]G[NMeL][NMeV]FD[NMeF]A-Piperidide; lactam N-10) | 14 | 97 | – | –
CC[C@H](C)[C@@H]1NC(=O)[C@H](C)N(C)C(=O)[C@H](CC(C)C)N(C)C(=O)[C@H](Cc2ccccc2)NC(=O)[C@H]([C@@H](C)O)NC(=O)[C@H](C(C)C)N(C)C(=O)[C@H](C)N(C)C(=O)CN(C)C(=O)[C@@H](C(C)C)NC(=O)C[C@@H](C(=O)N(C)C(Cc2ccccc2)C(=O)N(C)[C@@H](Cc2ccccc2)C(=O)N[C@@H](C)C(=O)N2CCCCC2)NC1=O (stereo partly drawn) [DP-293] ([dV][Sar][NMeA][NMeV]TF[NMeL][NMeA]ID[ξNMeF][NMeF]A-Piperidide; lactam N-10) | 45 | 29 | – | –
CC[C@H](C)[C@@H]1NC(=O)[C@@H](C(C)C)NC(=O)C[C@@H](C(=O)N(C)[C@@H](Cc2ccccc2)C(=O)N[C@@H](C)C(=O)N2CCCCC2)NC(=O)[C@H](Cc2ccccc2)N(C)C(=O)[C@H](C)NC(=O)[C@H](CC(C)C)N(C)C(=O)[C@H](C)N(C)C(=O)[C@H]([C@@H](C)O)NC(=O)[C@H](C)N(C)C(=O)[C@H](C(C)C)N(C)C1=O [DP-294] ([dV]I[NMeV][NMeA]T[NMeA][NMeL]A[NMeF]D[NMeF]A-Piperidide; lactam N-10) | 17 | 35 | – | –
CC(C)C[C@H]1C(=O)N[C@H](C(=O)N(C)[C@@H](Cc2ccccc2)C(=O)N[C@@H](C)C(=O)N2CCCCC2)CC(=O)N(C)[C@@H](C)C(=O)N[C@@H](Cc2ccccc2)C(=O)N(C)[C@@H](C(C)C)C(=O)N(C)[C@@H](C)C(=O)N[C@@H]([C@@H](C)O)C(=O)N(C)[C@@H](C)C(=O)N(C)[C@@H](CC(C)C)C(=O)N[C@@H](C)C(=O)N1C [DP-296] ([NMeA]F[NMeV][NMeA]T[NMeA][NMeL]A[NMeL]D[NMeF]A-Piperidide; lactam N-10) | 15 | 64 | – | –
CC[C@H](C)[C@@H]1NC(=O)[C@H](C(C)C)N(C)C(=O)[C@H](CC(C)C)N(C)C(=O)[C@H](C)N(C)C(=O)[C@H]([C@@H](C)O)NC(=O)[C@H](Cc2ccccc2)N(C)C(=O)CCN(C)C(=O)C[C@@H](C(=O)N(C)[C@@H](Cc2ccccc2)C(=O)N(C)[C@@H](Cc2ccccc2)C(=O)N[C@@H](C)C(=O)N2CCCCC2)NC(=O)[C@H](C)N(C)C(=O)[C@H](CC(C)C)N(C)C1=O [DP-297] ([NMeβAla][NMeF]T[NMeA][NMeL][NMeV]I[NMeL][NMeA]D[NMeF][NMeF]A-Piperidide; lactam N-10) | 19 | 78 | – | –
CC(C)C[C@H]1C(=O)N[C@@H](Cc2ccccc2)C(=O)N(C)[C@@H](C(C)C)C(=O)N[C@@H]([C@@H](C)O)C(=O)N[C@H](C(=O)N(C)[C@@H](Cc2ccccc2)C(=O)N(C)[C@@H](Cc2ccccc2)C(=O)N[C@@H](C)C(=O)N2CCCCC2)CC(=O)N(C)CCC(=O)N[C@@H](C(C)C)C(=O)N(C)[C@@H](CC(C)C)C(=O)N(C)[C@@H](Cc2ccccc2)C(=O)NCC(=O)N1C [DP-298] ([NMeβAla]V[NMeL][NMeF]G[NMeL]F[NMeV]TD[NMeF][NMeF]A-Piperidide; lactam N-10) | 7 | 39 | – | –
CC[C@H](C)[C@@H]1NC(=O)[C@H](Cc2ccccc2)N(C)C(=O)[C@H](CC(C)C)N(C)C(=O)[C@H](Cc2ccccc2)N(C)C(=O)[C@H]([C@@H](C)O)NC(=O)CCN(C)C(=O)C[C@@H](C(=O)N(C)[C@@H](Cc2ccccc2)C(=O)N[C@@H](C)C(=O)N2CCCCC2)NC(=O)[C@H](CC(C)C)N(C)C(=O)[C@H](C)N(C)C(=O)[C@H](CC(C)C)N(C)C1=O [DP-299] ([NMeβAla]T[NMeF][NMeL][NMeF]I[NMeL][NMeA][NMeL]D[NMeF]A-Piperidide; lactam N-10) | 5.3 | 56 | – | –
CC[C@H](C)[C@@H]1NC(=O)[C@H](CC(C)C)N(C)C(=O)[C@H](C)N(C)C(=O)[C@H]([C@@H](C)O)NC(=O)[C@H](Cc2ccccc2)N(C)C(=O)[C@H](C)N(C)C(=O)[C@@H](C)N(C)C(=O)C[C@@H](C(=O)N(C)[C@@H](Cc2ccccc2)C(=O)N(C)[C@@H](Cc2ccccc2)C(=O)N[C@@H](C)C(=O)N2CCCCC2)NC(=O)[C@H](C(C)C)N(C)C(=O)[C@H](CC(C)C)N(C)C1=O [DP-300] ([dNMeA][NMeA][NMeF]T[NMeA][NMeL]I[NMeL][NMeV]D[NMeF][NMeF]A-Piperidide; lactam N-10) | – | – | 8.2 | 166
CC(C)C[C@H]1C(=O)N[C@@H]([C@@H](C)O)C(=O)N(C)[C@@H](Cc2ccccc2)C(=O)N(C)[C@@H](CC(C)C)C(=O)NCC(=O)N(C)[C@@H](C(C)C)C(=O)N[C@@H](Cc2ccccc2)C(=O)N[C@H](C(=O)N(C)[C@@H](Cc2ccccc2)C(=O)N[C@@H](C)C(=O)N2CCCCC2)CC(=O)N(C)[C@H](C)C(=O)N[C@@H](C(C)C)C(=O)N1C [DP-301] ([dNMeA]V[NMeL]T[NMeF][NMeL]G[NMeV]FD[NMeF]A-Piperidide; lactam N-10) | 15 | 184 | – | –
